# Source: US7932211B2, “4-(4-trifluoromethyl-3-thiobenzoyl)pyrazoles and their use as herbicides” (Bayer Cropscience AG, priority 2007, dated 2011)
# What was measured:
# Type in all cases: in vivo
# VERPE Veronica persica [1] = test: Pre-emergence herbicidal action against harmful plants; conditions: 80 g a.i./ha, visual scoring 3-4 weeks after treatment
# Text: (§1) Seeds or rhizome pieces of mono- and dicotyledonous harmful plants are placed in sandy loam in pots of a diameter of 9 to 13 cm and covered with soil. The herbicides, formulated as emulsifiable concentrates or dusts, are applied to the surface of the covering soil in the form of aqueous dispersions or suspensions or emulsions at an application rate of 300 to 800 l of water/ha (converted), at various dosages. For further cultivation of the plants, the pots are then kept in a greenhouse under optimum conditions. The visual scoring of the damage to the harmful plants is carried out 3-4 weeks after the treatment. As shown by the results of these comparative tables, the selected compounds according to the invention have better herbicidal activity against a broad spectrum of economically important mono- and dicotyledonous harmful plants than the compounds disclosed in the prior art.
# VIOTR Viola tricolor [2] = test: as above; conditions: 80 g a.i./ha, visual scoring 3-4 weeks after treatment, Comparative Table 9
# Text: as §1
# [3] = tested on: XANST Xanthium strumarium; test: as above; conditions: 80 g a.i./ha, visual scoring 3-4 weeks after treatment, Comparative Table 9
# Text: as §1
# GALAP Galium aparine = test: as above; conditions: 80 g a.i./ha, visual scoring 3-4 weeks after treatment, Comparative Table 8
# Text: as §1
# LOLMU Lolium multiflorum [4] = test: as above; conditions: visual scoring 3-4 weeks after treatment
# Text: as §1
# [5] = tested on: POLCO Polygonum convolvulus; test: as above; conditions: 80 g a.i./ha, visual scoring 3-4 weeks after treatment, Comparative Table 8
# Text: as §1
# MATIN Matricaria inodora = test: Post-emergence herbicidal action against harmful plants; conditions: 80 g a.i./ha, scored after 3 to 4 weeks
# Protocol: (§2) Seeds of mono- and dicotyledonous harmful plants are placed in sandy loam in cardboard pots, covered with soil and grown in the greenhouse under good growth conditions. Two to three weeks after sowing, the test plants are treated at the three-leaf stage. The compounds according to the invention, which are formulated as wettable powders or as emulsion concentrates, are sprayed at an application rate of 600 to 800 l of water/ha (converted) in a dosage stated in tables 1 to 5 onto the surface of the green plant parts. After the test plants have been left to stand in the greenhouse for 3 to 4 weeks under optimum growth conditions, the action of the compounds according to the invention is scored in comparison to compounds disclosed in the prior art. As shown by the results of these comparison tables, the selected compounds according to the invention have better herbicidal activity against a broad spectrum of economically important mono- and dicotyledonous harmful plants than the compounds disclosed in the prior art.
# VERPE Veronica persica [6] = test: as above; conditions: 80 g a.i./ha, scored after 3 to 4 weeks
# Protocol: as §2
# VIOTR Viola tricolor [7] = test: as above; conditions: 80 g a.i./ha, scored after 3 to 4 weeks
# Protocol: as §2
# [8] = tested on: XANST Xanthium strumarium; test: as above; conditions: 80 g a.i./ha, scored after 3 to 4 weeks, Comparative Table 11
# Protocol: as §2
# [9] = tested on: POLCO Polygonum convolvulus; test: as above; conditions: Port-emergence, 80 g a.i./ha, scored after 3 to 4 weeks; Comparative Table 5
# Protocol: as §2
# STEME Stellaria media [10] = test: as above; conditions: Port-emergence, 80 g a.i./ha, scored after 3 to 4 weeks; Comparative Table 5
# Protocol: as §2
# [11] = tested on: DIGSA Digitaria sanguinalis; test: as above; conditions: 80 g a.i./ha, scored after 3 to 4 weeks, Comparative Table 10
# Protocol: as §2
# [12] = tested on: ECHCG Echinochloa crus galli; test: as above; conditions: scored after 3 to 4 weeks
# Protocol: as §2
# LOLMU Lolium multiflorum [13] = test: as above; conditions: scored after 3 to 4 weeks
# Protocol: as §2
# SETVI Setaria viridis [14] = test: as above; conditions: scored after 3 to 4 weeks
# Protocol: as §2
# [15] = tested on: ABUTH Abutilon theophrasti; test: as above; conditions: Port-emergence, 80 g a.i./ha, scored after 3 to 4 weeks; Comparative Table 4
# Protocol: as §2
# [16] = tested on: AMARE Amaranthus retroflexus; test: as above; conditions: Port-emergence, 80 g a.i./ha, scored after 3 to 4 weeks; Comparative Table 4
# Protocol: as §2
# [17] = tested on: AMARE Amaranthus retroflexus; test: Pre-emergence herbicidal action against harmful plants; conditions: visual scoring 3-4 weeks after treatment
# Text: as §1
# AVESA [18] = test: as above; conditions: 320 g a.i./ha, visual scoring 3-4 weeks after treatment, Comparative Table 6
# Text: as §1
# SETVI Setaria viridis [19] = test: as above; conditions: 320 g a.i./ha, visual scoring 3-4 weeks after treatment, Comparative Table 6
# Text: as §1
# [20] = tested on: ABUTH Abutilon theophrasti; test: as above; conditions: 80 g a.i./ha, visual scoring 3-4 weeks after treatment, Comparative Table 1
# Text: as §1
# [21] = tested on: ECHCG Echinochloa crus galli; test: as above; conditions: 80 g a.i./ha, visual scoring 3-4 weeks after treatment, Comparative Table 1
# Text: as §1
# STEME Stellaria media [22] = test: as above; conditions: 80 g a.i./ha, visual scoring 3-4 weeks after treatment, Comparative Table 2
# Text: as §1
# AVESA [23] = test: Post-emergence herbicidal action against harmful plants; conditions: Port-emergence, scored after 3 to 4 weeks, Comparative Table 7
# Protocol: as §2
# [24] = 80 g a.i./ha, Comparative Table 8
# [25] = Post-emergence, Comparative Table 11
# [26] = Port-emergence, Comparative Table 5
# [27] = Post-emergence, 80 g a.i./ha, Comparative Table 10
# [28] = Port-emergence, Comparative Table 4
# [29] = 320 g a.i./ha, Comparative Table 6
# [30] = 80 g a.i./ha, Comparative Table 1
# [31] = 80 g a.i./ha, Comparative Table 2
# [32] = Port-emergence, 320 g a.i./ha, Comparative Table 7
# [33] = Post-emergence, 80 g a.i./ha, Comparative Table 3
# [34] = Port-emergence, 80 g a.i./ha, Comparative Table 7
structure (smiles),measurement,setting,value
CCn1ncc(C(=O)c2ccc(S(C)(=O)=O)c(S(C)(=O)=O)c2C)c1O [drawing 32],Activity against harmful plants VERPE,VERPE Veronica persica [1]; Comparative Table 9,80%
same,Activity against harmful plants VIOTR,VIOTR Viola tricolor [2],20%
same,Activity against harmful plants XANST,[3],40%
CCn1ncc(C(=O)c2ccc(C(F)(F)F)c(S(C)(=O)=O)c2C)c1O [drawing 29],Activity against harmful plants GALAP,GALAP Galium aparine,80%
same,Activity against harmful plants LOLMU,LOLMU Lolium multiflorum [4]; [24],70%
same,Activity against harmful plants POLCO,[5],50%
CCn1ncc(C(=O)c2ccc(S(C)(=O)=O)c(S(C)(=O)=O)c2C)c1O [drawing 36],Activity against harmful plants MATIN,MATIN Matricaria inodora; [25],40%
same,Activity against harmful plants VERPE,VERPE Veronica persica [6]; [25],80%
same,Activity against harmful plants VIOTR,VIOTR Viola tricolor [7]; [25],50%
same,Activity against harmful plants XANST,[8],70%
CCn1ncc(C(=O)c2ccc(C(F)(F)F)c(S(C)(=O)=O)c2C)c1O [drawing 23],Activity against harmful plants POLCO,[9],100%
same,Activity against harmful plants STEME,STEME Stellaria media [10],90%
same,Activity against harmful plants VERPE,VERPE Veronica persica [6]; [26],90%
same,Activity against harmful plants VIOTR,VIOTR Viola tricolor [7]; [26],80%
CCn1ncc(C(=O)c2ccc(S(C)(=O)=O)c(S(C)(=O)=O)c2C)c1O [drawing 34],Activity against harmful plants DIGSA,[11],80%
same,Activity against harmful plants ECHCG,[12]; [27],80%
same,Activity against harmful plants LOLMU,LOLMU Lolium multiflorum [13]; [27],20%
same,Activity against harmful plants SETVI,SETVI Setaria viridis [14]; [27],80%
CCn1ncc(C(=O)c2ccc(C(F)(F)F)c(F)c2C)c1O [drawing 22],Activity against harmful plants ABUTH,[15],80%
same,Activity against harmful plants AMARE,[16],0%
same,Activity against harmful plants MATIN,MATIN Matricaria inodora; [28],0%
Cc1c(C(=O)c2cnn(C)c2O)ccc(C(F)(F)F)c1F,Activity against harmful plants AMARE,[17]; [29],50%
same,Activity against harmful plants AVESA,AVESA [18],20%
same,Activity against harmful plants LOLMU,LOLMU Lolium multiflorum [4]; [29],20%
same,Activity against harmful plants SETVI,SETVI Setaria viridis [19],20%
CCn1ncc(C(=O)c2ccc(C(F)(F)F)c(S(C)(=O)=O)c2C)c1O [drawing 15],Activity against harmful plants ABUTH,[20],100%
same,Activity against harmful plants ECHCG,[21],100%
same,Activity against harmful plants LOLMU,LOLMU Lolium multiflorum [4]; [30],70%
CCn1ncc(C(=O)c2ccc(C(F)(F)F)c(S(C)(=O)=O)c2C)c1O [drawing 35],Activity against harmful plants MATIN,MATIN Matricaria inodora; [25],90%
same,Activity against harmful plants VERPE,VERPE Veronica persica [6]; [25],90%
same,Activity against harmful plants VIOTR,VIOTR Viola tricolor [7]; [25],80%
same,Activity against harmful plants XANST,[8],100%
CCn1ncc(C(=O)c2ccc(C(F)(F)F)c(F)c2C)c1O [drawing 18],Activity against harmful plants AMARE,[17]; [31],0%
same,Activity against harmful plants STEME,STEME Stellaria media [22],40%
same,Activity against harmful plants VERPE,VERPE Veronica persica [1]; Comparative Table 2,0%
CCn1ncc(C(=O)c2ccc(C(F)(F)F)c(S(C)(=O)=O)c2C)c1O [drawing 21],Activity against harmful plants ABUTH,[15],90%
same,Activity against harmful plants AMARE,[16],100%
same,Activity against harmful plants MATIN,MATIN Matricaria inodora; [28],90%
CCn1ncc(C(=O)c2ccc(C(F)(F)F)c(S(C)(=O)=O)c2C)c1O [drawing 33],Activity against harmful plants DIGSA,[11],100%
same,Activity against harmful plants ECHCG,[12]; [27],90%
same,Activity against harmful plants LOLMU,LOLMU Lolium multiflorum [13]; [27],60%
same,Activity against harmful plants SETVI,SETVI Setaria viridis [14]; [27],100%
Cc1c(C(=O)c2cnn(C)c2O)ccc(C(F)(F)F)c1S(C)(=O)=O [drawing 25],Activity against harmful plants AMARE,[17]; [29],100%
same,Activity against harmful plants AVESA,AVESA [18],90%
same,Activity against harmful plants LOLMU,LOLMU Lolium multiflorum [4]; [29],90%
same,Activity against harmful plants SETVI,SETVI Setaria viridis [19],100%
CCn1ncc(C(=O)c2ccc(S(C)(=O)=O)c(S(C)(=O)=O)c2C)c1O [drawing 30],Activity against harmful plants GALAP,GALAP Galium aparine,60%
same,Activity against harmful plants LOLMU,LOLMU Lolium multiflorum [4]; [24],0%
same,Activity against harmful plants POLCO,[5],30%
CCn1ncc(C(=O)c2ccc(C(F)(F)F)c(F)c2C)c1O [drawing 16],Activity against harmful plants ABUTH,[20],0%
same,Activity against harmful plants ECHCG,[21],30%
same,Activity against harmful plants LOLMU,LOLMU Lolium multiflorum [4]; [30],0%
CCn1ncc(C(=O)c2ccc(C(F)(F)F)c(F)c2C)c1O [drawing 24],Activity against harmful plants POLCO,[9],60%
same,Activity against harmful plants STEME,STEME Stellaria media [10],0%
same,Activity against harmful plants VERPE,VERPE Veronica persica [6]; [26],0%
same,Activity against harmful plants VIOTR,VIOTR Viola tricolor [7]; [26],0%
Cc1c(C(=O)c2cnn(C)c2O)ccc(C(F)(F)F)c1Cl,Activity against harmful plants AVESA,AVESA [23]; 320 g a.i./ha,20%
same,Activity against harmful plants ECHCG,[12]; [32],0%
same,Activity against harmful plants LOLMU,LOLMU Lolium multiflorum [13]; [32],20%
same,Activity against harmful plants SETVI,SETVI Setaria viridis [14]; [32],30%
CCn1ncc(C(=O)c2ccc(C(F)(F)F)c(S(C)(=O)=O)c2C)c1O [drawing 17],Activity against harmful plants AMARE,[17]; [31],90%
same,Activity against harmful plants STEME,STEME Stellaria media [22],90%
same,Activity against harmful plants VERPE,VERPE Veronica persica [1]; Comparative Table 2,90%
CCn1ncc(C(=O)c2ccc(C(F)(F)F)c(S(C)(=O)=O)c2C)c1O [drawing 19],Activity against harmful plants ECHCG,[12]; [33],90%
same,Activity against harmful plants LOLMU,LOLMU Lolium multiflorum [13]; [33],60%
same,Activity against harmful plants SETVI,SETVI Setaria viridis [14]; [33],100%
Cc1c(C(=O)c2cnn(C)c2O)ccc(C(F)(F)F)c1S(C)(=O)=O [drawing 27],Activity against harmful plants AVESA,AVESA [23]; 80 g a.i./ha,70%
same,Activity against harmful plants ECHCG,[12]; [34],90%
same,Activity against harmful plants LOLMU,LOLMU Lolium multiflorum [13]; [34],80%
same,Activity against harmful plants SETVI,SETVI Setaria viridis [14]; [34],90%
CCn1ncc(C(=O)c2ccc(C(F)(F)F)c(S(C)(=O)=O)c2C)c1O [drawing 31],Activity against harmful plants VERPE,VERPE Veronica persica [1]; Comparative Table 9,90%
same,Activity against harmful plants VIOTR,VIOTR Viola tricolor [2],90%
same,Activity against harmful plants XANST,[3],100%
CCn1ncc(C(=O)c2ccc(C(F)(F)F)c(F)c2C)c1O [drawing 20],Activity against harmful plants ECHCG,[12]; [33],0%
same,Activity against harmful plants LOLMU,LOLMU Lolium multiflorum [13]; [33],0%
same,Activity against harmful plants SETVI,SETVI Setaria viridis [14]; [33],0%
